Assay results as given in paper PMC8220083 (Frontiers in Pharmacology, 2021).
Where “and” joins values, the source holds several entries; their conditions need not be identical. Identical values can stand only once. Like-named read-outs stand apart in the source and are kept apart here. Each block holds one molecule with its values, some of them ahead of it.

What was measured:
[1] = molecular target: T1, Human leukocyte elastase (HLE-G) (Homo sapiens, UniProt P08246); experiment: Inhibition of HLE-G enzymatic activity; assay type: biochemical; conditions: for IC50: compound vs. HLE-G (75 µM), 10 min at 37°C, 5 min with substrate; for HLE-G Molar excess: molar excess of compound to HLE-G at IC50
T1 construct: purchased Athens Research & Technology 16-14-051200
T1 sequence (P08246 30-267): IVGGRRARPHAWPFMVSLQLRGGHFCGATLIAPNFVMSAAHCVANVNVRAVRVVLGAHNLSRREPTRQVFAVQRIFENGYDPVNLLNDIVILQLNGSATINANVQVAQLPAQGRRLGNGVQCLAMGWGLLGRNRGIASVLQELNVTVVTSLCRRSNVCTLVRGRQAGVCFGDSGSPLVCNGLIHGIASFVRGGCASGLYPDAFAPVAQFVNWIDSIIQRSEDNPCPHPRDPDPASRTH
Procedure: Inhibition of HLE-G enzymatic activity. Two-fold serial dilutions of HLE-G in 100 µl Tris-buffered saline (pH 7.8) were added to rows of wells of a microtiter plate as previously described ([Bristow et al., 1991]). […] The microtiter plate was incubated for 10 min at 37°C. The HLE-G substrate (Succinyl-L-Ala-L-Ala-L-Ala-p-nitroanilide, Sigma) was added to all wells, and absorbance at 405 nm was detected kinetically at 23°C using an MRX plate reader.

[2] = molecular target: T2, cell surface human leukocyte elastase (HLE-CS) on U937 Clone 10 cells (Homo sapiens, UniProt P08246); experiment: Cellular adherence to glass (HLE-CS interaction); assay type: cell-based; conditions: 2,000 U937 cells per well; for HLE-CS Adherent cells: at optimal concentration; for HLE-CS Optimal concentration: optimal adherence concentration
T2 construct: endogenous in cells; host or cells: human U937 Clone 10 cells
T2 sequence (P08246 30-267): T1 sequence (P08246 30-267)
Description: Cellular adherence. […] […] Unattached cells were removed by washing using AIM-V, and attached cells were fixed by application of 4% paraformaldehyde. Attached cells were counted by light microscopy.

[3] = system: Leishmania amazonensis promastigotes; design: method as in Andrade-Neto et al., 2016; conditions: ref Andrade-Neto et al., 2016; read-out: IC50 for killing Leishmania amazonensis promastigotes; cited from earlier work
[4] = Diet-induced obesity (DIO) mouse model, lipoprotein levels; assay type: in vivo, C57BL/6J mice; conditions: 60% fat diet, daily oral gavage; for LDL levels: after 3 weeks, ezetimibe 10 mg/kg, Alphataxin 5 mg/kg; for LDL levels / triglyceride levels: vs vehicle control; for triglyceride levels: weeks 3, 6, 8
Procedure: Animal Studies. Animal studies were performed by Jackson Laboratory (Bar Harbor, ME), an OLAW-Assured and AAALAC accredited institution. All research was reviewed and approved by the Institutional Animal Care and Use Committee (IACUC) prior to commencing. The study used 16–17 weeks old male DIO C57BL/6J mice that had been maintained on a 10% (control) or 60% high-fat diet. […] Treatment was delivered by daily oral gavage at the same time of day for 12 weeks. Blood was collected by retro-orbital bleed every 3 weeks for measurement of total cholesterol, LDL, HDL, triglycerides, […] free fatty acids and glucose using the Beckman Coulter AU680 Chemistry System.
Food consumption was monitored twice weekly, and body weight was monitored weekly. As mice gained weight on the 60% high-fat diet during the study, dosing was adjusted accordingly. Mice were monitored for adverse effects (e.g., labored breathing, aberrant weight change). Three mice were lost during the study. […] The mice lost in the ezetimibe group were due to a severe bite wound and an unknown causes. The mouse lost in the Alphataxin group was due to an abnormal amount of gas in the stomach attributed to a gavaging error.

Lactobacillus spp. = system: Lactobacillus spp.; design: method as in Catry et al., 2015; conditions: ref Catry et al., 2015; cited from earlier work
[5] = design: method as in Nissen et al., 2016; conditions: ref Nissen et al., 2016, cited from earlier work
E. coli DH5-Alpha = experiment: Kirby-Bauer Disk Test of antibiotic activity; assay type: cell-based; conditions: for diameter of zone of inhibition: 16 h at 37°C; for inhibitory dose: disk test
Procedure: Antibiotic activity. […] D-Ampicillin-sensitive E. coli DH5-Alpha was cultured overnight in LB broth, and the cell concentration was calibrated using McFarland Turbidity Standard […] for <300 × 10^6 CFU. At this concentration of cells, bacteria were spread on Mueller-Hinton agar plates. […] After incubation for 16 h at 37°C, plates were examined for zones of inhibition.

U937 Clone 10 cells = experiment: Receptor polarization and endocytosis of SHIV; assay type: cell-based, human; conditions: for SHIV localization: cells preconditioned 15 min 37°C
Procedure: Receptor Polarization and Endocytosis. To Eppendorf tubes that been precoated with RPMI-1640 containing 10% fetal bovine serum to prevent attachment, were added 250 μl containing 5 × 10^5 U937 Clone 10 cells.
U937 Clone 10 cells were pulsed with SHIV particles (30 ng p27 or p24 per 10^6 cells) for 2 h at 2°C, a circumstance that allows binding, but prevents endocytosis. Alternatively, cells were pulsed with virus for 2 h at 37°C, a circumstance that allows binding and endocytosis ([Bristow et al., 2012]). Following pulsing for 2 h, cells were pelleted, resuspended in AIM-V and allowed to adhere to Alcian blue coated microscope slides for 8 min at 4°C, washed, and fixed using 4% paraformaldehyde as previously described ([Frank et al., 2002]). The presence of AT-2 virus in test cells was detected using dodecameric human CD4-IgG1 provided by the Laboratory of Immunoregulation, NIAID, NIH. This reagent specifically recognizes conformationally intact HIV/SIV envelope gp120. CD4-IgG1 was detected using rabbit anti-human IgG conjugated with horse radish peroxidase (SigmaAldrich). CD4-IgG-labeled cells were coupled to Oregon 488 fluorochrome using the tyramide signal amplification system (Life Science Products, Boston, MA, United States). In some cases, cells stained on slides were permeabilized using 0.05% saponin during the blocking step and further stained with the nuclear staining dye, 4′,6-diamidino-2-phenylindole (DAPI), mounted, and examined by epifluorescence microscopy using a Zeiss Axioplan to detect positive and negative reactions. Representative samples of positive and negative reactions were subsequently captured by confocal microscopy using a Perkin Elmer Operetta High Content Imaging System. Cells were analyzed by confocal microscopy using 2 μm scanning from the attached surface toward the unattached surface.

[6] = assay type: in vivo, human; conditions: HIV-1-infected, 8 weekly infusions 120 mg/kg
Procedure: Clinical trial NCT01731691: This clinical trial was a double-blind, randomized study as previously described ([Bristow et al., 2019]). Written informed consent was received from 12 individuals, 8 HIV-1-infected individuals and 4 uninfected controls. Blood was collected weekly at the same time of day at baseline and for 8 subsequent weeks from uninfected, untreated controls and from HIV-1-infected individuals who were treated weekly with Prolastin-C (n = 3) or with placebo (n = 5). […] Inclusion criteria HIV-1 uninfected, untreated controls were the same as for HIV-1 infected subjects excluding HIV-related criteria. Grifols Biotherapeutics contributed a sufficient quantity of Prolastin-C (lot# 26NLK52) for administration of 8 weekly infusions at a dose of 120 mg/kg. The study protocol was approved by Copernicus Group Independent Institutional Review Board, Durham, NC. Drug delivery and blood collection were performed at ACRIA, New York, NY.
Human apolipoproteins measurement. Total cholesterol, high density lipoprotein (HDL), low density lipoprotein (LDL), triglycerides, apolipoprotein E (apoE), and apolipoprotein A1 (apoA1) measurements were performed by ICON Central Laboratory, Farmingdale, NY. Cholesterol, HDL, and triglycerides were measured using the Chol2, HDLC3, TRIGL methods on the Roche/Hitachi cobas c analyzer. LDL was calculated using the formula total cholesterol – HDL – (triglycerides/5). ApoE was quantitated using the Kamiya Biomedical Co. K-assay immunoturbidimetric method. ApoA1 was quantitated using the Siemens N antisera method by immunonephelometry on the BN II and BN ProSpec System. Total apoB and apoB48 measurements were contracted by ICON Central Laboratory to Nexelis (formerly Pacific Biomarkers). Total apoB was measured in serum by immunoturbidimetry using the Roche Modular P instrument and Goat polyclonal antibody specific for human apoB. ApoB48 wase measured by sandwich ELISA using a capture monoclonal antibody and detection using a biotin-conjugated polyclonal antibody followed by HRP-conjugated Streptavidin and addition of a chromogenic substrate using a SoftMax Pro ELISA plate reader. ApoB100 was calculated as total apoB minus apoB48. Cholesterol, triglycerides, HDL, LDL, apoE and apoA1 were measured by ICON Central Laboratory, Farmingdale, NY.

- IC50 [1]: 277 µM
- HLE-G Molar excess [1]: 3.7
- HLE-CS Adherent cells [2]: 40 ± 3
- HLE-CS Optimal concentration [2]: 100 nM
Molecule: O=C1[C@H](CC[C@H](O)c2ccc(F)cc2)[C@@H](c2ccc(O)cc2)N1c1ccc(F)cc1 [Ezetimibe]
- IC50 [3]: 30 µM
- LDL levels [4]: significantly decreased
- triglyceride levels [4]: did not
- effect on intestinal microbiome (Lactobacillus spp.): increasing the Lactobacillus spp.
- effectiveness in lowering LDL levels vs PCSK9 inhibitors ([5]; p < 0.001): significantly less effective
- individuals with muscle symptoms [5]: 28%

- HLE-CS Adherent cells [2]: 27 ± 10
Molecule: CC1=C(C(=O)O)N2C(=O)[C@@H](NC(=O)[C@H](N)c3ccccc3)[C@H]2SC1 [Cephalexin]

- IC50 [1]: 262 µM
- HLE-G Molar excess [1]: 3.5
- HLE-CS Adherent cells [2]: 30 ± 4
- HLE-CS Optimal concentration [2]: 10 nM
Molecule: CC1(C)S[C@@H]2[C@H](NC(=O)COc3ccccc3)C(=O)N2[C@H]1C(=O)O [Pen V, Penicillin V]

- MIC (E. coli DH5-Alpha; extrapolated from 10-fold greater minimum inhibitory dose than D-ampicillin): ≥ 80 µg/mL
Molecule: CC1(C)S[C@@H]2[C@H](NC(=O)[C@@H](N)c3ccccc3)C(=O)N2[C@H]1C(=O)O [Alphataxin]
- cellular locomotion and endocytosis (U937 Clone 10 cells): mimics α1PI activity by binding to HLE-CS and inducing cellular locomotion and endocytosis
- SHIV localization (U937 Clone 10 cells; SHIV 2 h at 2°C): SHIV detected only on the exterior plasma membrane of polarized cells, never internalized into the cells
- SHIV localization (U937 Clone 10 cells; SHIV 2 h at 37°C): SHIV was detected internal to the cells
- LDL levels [4]: significantly decreased
- LDL lowering compared with ezetimibe ([4]; p = 0.90): equivalent to ezetimibe
- triglyceride levels [4]: significantly lowered
- antibiotic effectiveness against E. coli (E. coli DH5-Alpha): not an effective antibiotic against E. coli
- diameter of zone of inhibition (E. coli DH5-Alpha; 0.05 mM): 1.5 cm
- diameter of zone of inhibition (E. coli DH5-Alpha; 0.5 mM): 2.8 cm
- diameter of zone of inhibition (E. coli DH5-Alpha; 5 mM (Figure 2 legend)): 1.5 cm
- diameter of zone of inhibition (E. coli DH5-Alpha; 50 mM (Figure 2 legend)): 2.8 cm
- inhibitory dose (E. coli DH5-Alpha): ≥ 0.05 mM and ≥ 17.5 μg/ml

- HLE-CS Adherent cells [2]: 54 ± 20
- HLE-CS Optimal concentration [2]: 1 nM
Molecule: CC1(C)S[C@@H]2[C@H](NC(=O)[C@H](N)c3ccc(O)cc3)C(=O)N2[C@H]1C(=O)O [Amoxicillin]

The next lines start with the molecule.

Molecule: C[C@H]1[C@H](NC(=O)/C(=N\OC(C)(C)C(=O)O)c2csc(N)n2)C(=O)N1S(=O)(=O)O [Aztreonam]
- IC50 [1]: 234 µM
- HLE-G Molar excess [1]: 3.1
- HLE-CS Adherent cells [2]: 33 ± 4
- HLE-CS Optimal concentration [2]: 1 nM

Molecule: CO/N=C(\C(=O)N[C@@H]1C(=O)N2C(C(=O)O)=C(COC(N)=O)CS[C@H]12)c1ccco1 [Cefuroxine, Cefuroxime]
- IC50 [1]: 167 µM
- HLE-G Molar excess [1]: 2.2
- HLE-CS Adherent cells [2]: 34 ± 8
- HLE-CS Optimal concentration [2]: 1 nM

Molecule: C[C@@H](O)[C@H]1C(=O)N2C(C(=O)O)=C(S[C@@H]3CN[C@H](CNS(N)(=O)=O)C3)[C@H](C)[C@H]12 [Doripenem]
- IC50 [1]: 178 µM
- HLE-G Molar excess [1]: 2.4
- HLE-CS Adherent cells [2]: 52 ± 6
- HLE-CS Optimal concentration [2]: 100 nM

Molecule: CC1(C)S[C@@H]2[C@H](NC(=O)[C@H](N)c3ccccc3)C(=O)N2[C@H]1C(=O)O [D-Ampicillin]
- diameter of zone of inhibition (E. coli DH5-Alpha; 0.005 mM): 1.4 cm
- diameter of zone of inhibition (E. coli DH5-Alpha; 0.5 mM): 3.8 cm
- diameter of zone of inhibition (E. coli DH5-Alpha; 5 mM (Figure 2 legend)): 3.0 cm
- diameter of zone of inhibition (E. coli DH5-Alpha; 50 mM (Figure 2 legend)): 3.8 cm
- inhibitory dose (E. coli DH5-Alpha): ≥ 0.005 mM and ≥ 1.75 μg/ml

Molecule: C[C@@H](O)[C@H]1C(=O)N2C(C(=O)O)=C([C@H]3CCCO3)S[C@H]12 [Faropenem]
- IC50 [1]: 203 µM
- HLE-G Molar excess [1]: 2.7
- HLE-CS Adherent cells [2]: 23 ± 4
- HLE-CS Optimal concentration [2]: 10 nM

Molecule: Prolastin-C: sterile plasma-purified α1PI preparation from Grifols, lot# 26NLK52, infused weekly at 120 mg/kg
- HDL levels [6]: decreased from above normal to below normal levels
- apoA1 levels [6]: decreased from above normal to below normal levels
- apoB48 levels [6]: decreased from above normal to below normal levels
- apoB100 levels [6]: did not significantly decrease
- apoE levels [6]: decreased from above normal to normal levels
- total cholesterol levels [6]: decreased from above normal to normal levels
- triglycerides levels [6]: decreased from above normal to normal levels
- LDL levels ([6]; vs placebo arm): significantly lower than in the placebo arm

Molecule: Cc1onc(-c2c(Cl)cccc2Cl)c1C(=O)N[C@@H]1C(=O)N2[C@@H]1SC(C)(C)[C@@H]2C(=O)O [Dicloxacillin]
- IC50 [1]: 232 µM
- HLE-G Molar excess [1]: 3.1
- HLE-CS Adherent cells [2]: 26 ± 9
- HLE-CS Optimal concentration [2]: 1 nM
